Measurements reported in patent EP3748362A1, “IN VITRO METHOD FOR DETECTING RENAL DISEASE” (Fundacion Instituto De Investigacion Sanitaria Fundacion …, priority 2019, dated 2020).
Entries after “also recorded” stand apart in the source; their conditions may differ.

Legend:
TRAF3 = TRAF3 protein (western blot) and mRNA (real time RT-PCR) levels in PBMCs from ESRD patients treated or not with paricalcitol; type: in vivo, human; conditions: PBMCs of paricalcitol-treated ESRD patients on hemodialysis
Protocol: Intracellular protein and mRNA levels were measured in PBMCs from ESRD patients on hemodialysis. Inclusion criteria were as follows: age >45 years; male sex; informed consent; and absence of active inflammatory, infectious, or malignant diseases at the initiation or during the study. This study was approved by the IIS-Fundación Jiménez Diaz Ethics Committee. Patients were enrolled after providing written informed consent. PBMCs were separated from whole blood samples (30 ml into EDTA tubes) by a density gradient centrifugation method using Ficoll density gradient centrifugation. In total, 50x10^6 of PBMCs were obtained from 30 ml of whole blood and 6x10^6 PBMCs were used to isolate protein, RNA and nuclear/cytosolic protein levels using the NE-PER Reagent (Pierce) following the manufacturer's instructions.
(§1) For western blot, cell (25 µg/lane) and kidney (100-150 µg/lane) protein extracts were separated on 6%-12% polyacrylamide-SDS gels under reducing conditions. […] Autoradiographs were scanned using the Gel Doc™ EZ imager and analyzed with the Image Lab 3.0 software (BioRad).
Total RNA was isolated from cells and mouse kidney samples with Trizol (Invitrogen). […] The mRNA copy numbers were calculated for each sample by the instrument software using Ct value. Results are expressed in copy numbers, calculated relative to unstimulated cells or control mice, after normalization against 18S.

[1] = test system: CCL2, CCL5 and IL6, CCL21A and CCL19; assay: Proinflammatory gene expression (real time PCR) in TWEAK-stimulated PBMCs from healthy donors; type: cell-based, Human; conditions: 15 µmol/L paricalcitol 48 hours, TWEAK 100 ng/mL 6 hours
NF-κB1 = assay: Canonical NF-κB1 activation, folic acid-induced renal injury in mice; type: in vivo; conditions: folic acid 300 mg/kg model; paricalcitol 25 µg/kg/day i.p.
Protocol: (§2) All animal procedures were performed according to the guidelines of animal research in the European Community and with prior approval by the Ethics Committee of the Health Research of the IIS-Fundacion Jiménez Díaz. For in vivo studies, mice received a daily intraperitoneal injection of the VDRA Paricalcitol starting 48 hours prior to induction of kidney damage.
(§3) At the time of sacrifice, animals were anesthetized with 5 mg/kg xylazine (Rompun, Bayer AG) and 35 mg/kg ketamine (Ketolar, Pfizer) and the kidneys perfused in situ with cold saline before removal. Then, kidney portions were fixed in formalin buffer for immunohistochemistry studies or immediately frozen in liquid nitrogen for gene and protein studies.
Folic acid nephropathy is a classical model of kidney tubulointerstitial injury and inflammation that has been reported in humans. Mice received a single intraperitoneal injection of folic acid (Sigma) 300 mg/kg in 0.3 mol/l sodium bicarbonate or vehicle, and were sacrificed 48 hours later. […]
as §1

NF-κB2 = assay: Non-canonical NF-κB2 activation and dependent cytokines, folic acid-induced renal injury in mice; type: in vivo; conditions: folic acid 300 mg/kg model; paricalcitol 25 µg/kg/day i.p.
Protocol: as §2
as §3, with “studies. […]” for “studies.”
Paraffin-embedded kidney sections (3 µm) were stained using conventional methods. […] For each sample (processed by duplicate in a blinded manner), the average value was obtained from the analysis of 4 fields (20X objective) as density/mm2 or percentage stained area vs total analyzed area. Data are expressed as fold increase over control mice, as mean ± SEM of 8-10 animals per group. […]
For western blot, cell (25 µg/lane) and kidney (100-150 µg/lane) protein extracts were separated on 6%-12% polyacrylamide-SDS gels under reducing conditions. […] Autoradiographs were scanned using the Gel Doc™ EZ imager and analyzed with the Image Lab 3.0 software (BioRad). […]

Structure (SMILES): C[C@H](/C=C/[C@H](C)C(C)(C)O)[C@H]1CC[C@H]2/C(=C/C=C3C[C@@H](O)C[C@H](O)C3)CCC[C@]12C [paricalcitol]
- TRAF3 mRNA levels (TRAF3; real time RT-PCR): no changes
- TRAF3 protein levels (TRAF3; western blot, vs healthy controls): restored to values in the range of healthy controls
- TWEAK-induced upregulation of several proinflammatory genes, such as CCL2, CCL5 and IL6, as well as the NF-κB2-controlled genes CCL21A and CCL19 [1]: inhibited
- NF-κB1 activation, evaluated by IκB-α phosphorylation (NF-κB1): not modified
- NF-κB2 activation, as determined by RelB and p52 levels, nuclear translocation and RelB DNA-binding activity (NF-κB2): decreased; also recorded: blocked
- gene and protein expression of NF-κB2-dependent cytokines, such as CCL21A, as well as other pro-inflammatory factors (NF-κB2): blocked
